What all share (format): biochemical
Assay [1] deals with T1, human stromelysin-1 (Strom) (Homo sapiens, UniProt P08254).
T1 construct: The catalytic domain of human stromelysin (Sln) was obtained by expression and purification of a C-terminally truncated prostromelysin-1; made in house; host or cells: E. coli BL21
Nature of the assay: Inhibition of stromelysin (Strom) - fluorogenic MCA peptide substrate hydrolysis. The conditions noted are these: catalytic domain; Ki,app; MCA peptide substrate 10 μM, pH 7.5, 37° C., 2% DMSO; enzyme 1.5 nM. The procedure: The catalytic domain of human stromelysin (Sln) was obtained by expression and purification of a C-terminally truncated prostromelysin-1 from E. coli host BL21 (see Marcy et al. Biochem., 1991, 30, 6476, which article is entirely incorporated herein by reference). The subsequent activation of the mature form (Sln) was completed with 2mM APMA for 1 hour at 37° C., followed by separation using a sizing column.
(§1) Assays were performed in assay buffer (50 mM Tricine pH 7.5, 200 mM sodium chloride, 10 mM calcium chloride, 0.5 mM zinc acetate containing 2% dimethyl sulfoxide (DMSO)), once the substrate and inhibitor were diluted into it. Stock solutions of inhibitors were prepared in 100 % DMSO. Stock solutions of the substrate were prepared in 100 % DMSO at a concentration of 6 mM.
(§2) The assay method was based on the hydrolysis of MCA-Pro-Leu-Gly-Leu-DPA-Ala-Arg-NH2 (American Peptide Co.) at 37° C. (see Knight, C. G. et al., FEBS, 1992, 296, 263-266, which article is entirely incorporated herein by reference). The fluorescence changes were monitored with a Perkin-Elmer LS-50B fluorimeter using an excitation wavelength of 328 nm and an emission wavelength of 393 nm. The substrate concentration used in the assays was 10 μM. The inhibitor was diluted into the assays from a solution in 100 % DMSO, and controls substituted an equal volume of DMSO so that the final DMSO concentration from inhibitor and substrate dilution in all assays was 2%. […] Proper determination of steady-state rates of substrate cleavage required assay lengths of 60 minutes to allow for complete equilibration of the enzyme-inhibitor complex.
(§3) The Km for the MCA peptide substrate with the matrix metalloproteinases is quite high and exceeds its solubility under assay conditions. Consequently, the apparent Ki (Ki, app) was determined to describe the strength of inhibition. However, in this case, Ki,app would be essentially equal to Ki since [S]<<Km. For the determination of Ki,app, the concentration of the inhibitor was varied at a constant and low concentration of substrate, and the steady-state rates of fluorescence change were determined. In most cases, absorptive quench due to the presence of ligand was not observed. For slow-binding inhibitors, onset of inhibition curves were collected for at least 45 minutes so that equilibrium was established. Steady-state rates of fluorescence change were obtained by fitting a curve to an equation for a single exponential decay containing a linear phase. The fitted value of the linear phase was taken as the steady-state rate. The steady-state rates were fitted to the Michaelis equation describing competitive inhibition by non-linear methods. Data resulting from tight-binding inhibition was analyzed, and Ki,app determined by fitting the data to the tight-binding equation of Morrison (Biochem. Biophys. Acta, vol. 185, pp. 269-286 (1969), which article is entirely incorporated herein by reference) by non-linear methods.
(§4) All Ki values are in nM units.

Assay [2] deals with T2, human collagenase-1 (HFC) (Homo sapiens, UniProt P03956).
T2 construct: the fibroblast collagenase-1 catalytic domain (HFC) was released; ubiquitin (fusion) (cleaved yes); made in house; host or cells: E. coli
T2 sequence (P03956 100-269 limits assumed): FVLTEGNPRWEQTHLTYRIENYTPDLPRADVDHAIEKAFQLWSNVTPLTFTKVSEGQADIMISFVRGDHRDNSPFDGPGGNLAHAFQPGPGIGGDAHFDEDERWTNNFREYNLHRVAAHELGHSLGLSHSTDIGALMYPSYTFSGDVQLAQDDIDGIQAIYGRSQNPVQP
The experiment in a line: Inhibition of collagenase-1 (HFC) - fluorogenic MCA peptide substrate hydrolysis. The conditions noted are these: catalytic domain; Ki,app; MCA peptide substrate 10 μM, pH 7.5, 37° C., 2% DMSO.
Text: The catalytic domain of human collagenase-1 was expressed as a fusion protein with ubiquitin in E. coli (see Gehring, E. R., J. Biol. Chem., 1995, 270, 22507, which article is entirely incorporated herein by reference). After purification of the fusion protein, the fibroblast collagenase-1 catalytic domain (HFC) was released either by treatment with purified, active stromelysin-1 (1:50 w/w ratio), which generated nearly 100% N-terminal Phe1, or by autoprocessing the concentrated collagenase-1 fusion and then incubating at 37° C. for 1 hour. Final purification was completed using zinc chelate chromatography.
as §1, §2, §3, §4

Assay [3] has as its target human collagenase-3 (Coll-3). Nature of the assay: Inhibition of collagenase-3 (Coll-3) - fluorogenic MCA peptide substrate hydrolysis. The conditions noted are these: catalytic domain; Ki,app; MCA peptide substrate 10 μM, pH 7.5, 37° C., 2% DMSO. The procedure:
The propeptide and catalytic domain of human collagenase-3 (Coll3) was expressed in E. coli as an N-terminal fusion protein with ubiquitin. After purification of the fusion from inclusion bodies, the catalytic domain was liberated by treatment with 2mM APMA at room temperature overnight. Final purification was completed using copper chelate chromatography.
as §1, §2, §3, §4

The target in another assay is T3, human matrilysin (Matr) (Homo sapiens, UniProt P09237).
T3 construct: the catalytic domain was liberated by treatment with 2mM APMA; ubiquitin (fusion) (cleaved yes); made in house; host or cells: E. coli
T3 sequence (P09237 95-267): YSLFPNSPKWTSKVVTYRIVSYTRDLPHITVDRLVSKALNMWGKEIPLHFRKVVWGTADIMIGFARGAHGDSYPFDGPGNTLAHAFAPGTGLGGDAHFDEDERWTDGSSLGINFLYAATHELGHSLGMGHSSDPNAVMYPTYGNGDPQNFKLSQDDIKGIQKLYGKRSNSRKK
Nature of the assay: Inhibition of matrilysin (Matr) - fluorogenic MCA peptide substrate hydrolysis. Particulars: catalytic domain; Ki,app; MCA peptide substrate 10 μM, pH 7.5, 37° C., 2% DMSO. Here is the method: Human matrilysin (Matr) was expressed in E. coli as a fusion protein with ubiquitin. After purification of the matrilysin/ubiquitin fusion from inclusion bodies, the catalytic domain was liberated by treatment with 2mM APMA at 37 ° C. for 2 hours. Final purification was complete using copper chelate chromatography.
as §1, §2, §3, §4

The target in assay [4] is human gelatinase A (Gel A). Nature of the assay: Inhibition of gelatinase A (Gel A) - fluorogenic MCA peptide substrate hydrolysis. Particulars: catalytic and fibronectin-like portion; Ki,app; MCA peptide substrate 10 μM, pH 7.5, 37° C., 2% DMSO; enzyme 60 pM. The procedure: The catalytic and fibronectin-like portion of human progelatinase A (GelA) was expressed as a fusion protein with ubiquitin in E. Coli. Assays were carried out on autocatalytically activated material.
as §1, §2, §3, §4

SMILES strings stand for the structures.

T1 sequence (P08254 100-272 limits assumed): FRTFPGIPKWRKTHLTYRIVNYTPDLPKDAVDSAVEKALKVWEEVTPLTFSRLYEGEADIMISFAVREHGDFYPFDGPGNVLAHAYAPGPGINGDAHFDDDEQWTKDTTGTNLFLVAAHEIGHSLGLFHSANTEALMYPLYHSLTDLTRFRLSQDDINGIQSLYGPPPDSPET

`CC(C)[C@H](C(=O)NO)N(Cc1cccnc1)S(=O)(=O)c1ccc(Oc2ccc(Br)cc2)cc1` [Example 3(a), 2(R)-2-[4-(4-Bromophenoxy)benzenesulfonyl][(pyridin-3-yl)methyl]amino-N-hydroxy-3-methylbutanamide]: the Ki in assay [1] amounted to 0.35 nM; in assay [2], 7.6 nM; in assay [3] it was 0.02 nM.
With `CCOP(=O)(CN(CC(=O)NO)S(=O)(=O)c1ccc(Oc2ccccc2)cc1)OCC` [Example 4, 2(R)-2-[(diethylphosphonomethyl)(4-phenoxybenzenesulfonyl)amino]-N-hydroxyacetamide], the Ki in assay [1] turned out to be 0.23 nM; in assay [2], 27 nM; in assay [3], 0.09 nM.
Regarding `O=C(NO)[C@H]1CCCCN1S(=O)(=O)c1ccc(Oc2ccc(Br)cc2)cc1` [Example 5, 2(R)-1-[4-(4-Bromophenoxy)benzenesulfonyl]-N-hydroxypiperidine-2-carboxamide], the Ki in assay [1] worked out at 0.04 nM; in assay [2] it was 15 nM; at human matrilysin (Matr) it was 44 nM; in assay [4], 0.018 nM; in assay [3], 0.014 nM.
With `O=C(NO)[C@H]1CCCCN1S(=O)(=O)c1ccc(Oc2ccc(-c3ccccc3)cc2)cc1` [Example 6, 2(R)-1-[4-(Biphenyl-4-yl)oxybenzenesulfonyl]-N-hydroxy-piperidine-2-carboxamide], the Ki in assay [1] was 0.06 nM; in assay [2] it was 8.8 nM; on human matrilysin (Matr), 6.7 nM; in assay [4], 0.014 nM.
As to `CCOP(=O)(CN(CC(=O)O)S(=O)(=O)c1ccc(Oc2ccccc2)cc1)OCC` [Example 4(a), 2(R)-2-[(diethylphosphonomethyl)(4-phenoxybenzenesulfonyl)-amino]-acetic acid], the figures for the Ki in assay [1] and in assay [3] were 27000 nM and 740 nM, respectively.
In the case of `O=C(O)[C@H]1CCCCN1S(=O)(=O)c1ccc(Oc2ccc(-c3ccccc3)cc2)cc1` [Example 6(a)], the Ki in assay [1] came out at 2190 nM; in assay [2], 125000 nM; on human matrilysin (Matr), 72000 nM; in assay [4] it was 64 nM; in assay [3], 212 nM.
For `O=C(NO)[C@H]1CCCCN1S(=O)(=O)c1ccc(Oc2ccccc2)cc1` [Example 7, 2(R)-1-(4-Phenoxy-benzenesulfonyl)-N-hydroxy-piperidine-2-carboxamide], the Ki in assay [1] is 0.07 nM; in assay [2], 6.6 nM; at human matrilysin (Matr), 55 nM.
Regarding `O=C(O)[C@H]1CCCCN1S(=O)(=O)c1ccc(Oc2ccc(Br)cc2)cc1` [Example 5(a)], the Ki came to 16000 nM in assay [1]; 481000 nM in assay [2]; 540000 nM at human matrilysin (Matr); 192 nM in assay [4]; 448 nM in assay [3].
Turning to `CC(C)[C@H](C(=O)NO)N(Cc1cccnc1)S(=O)(=O)c1ccc(Oc2ccccc2)cc1` [Example 3(b), 2(R)-N-hydroxy-2-[(4-phenoxy)benzenesulfonyl][(pyridin-3-yl)methyl]amino-3-methylbutanamide], the Ki in assay [1] amounted to 1.2 nM; in assay [2] it was 6 nM; in assay [3] it was 0.05 nM.

These data come from patent USH1992H, “Metalloproteinase inhibitors, pharmaceutical compositions containing them, and their pharmaceutical uses” (Agouron Pharmaceuticals, Inc., priority 1999, dated 2001).
